Each structure is given as a SMILES string. Read-outs that look alike come from different tables or passages of the source. Bridge positions count the residues as written; N and C are the ends. Square brackets hold non-standard residues; d marks the D form. Peptide text beside a SMILES is read from it. tBuAla = CC(C)(C)C[C@H](N)C(=O)O; Mpa = O=C(O)CCS

For orientation: pA2 means the negative logarithm of the molar antagonist concentration that doubles the agonist concentration needed for the same response. A high value points to higher antagonist potency.

For test [1], the system named is porcine coronary artery. In words: Constrictor activity on porcine coronary smooth muscles. Conditions: for Maximum constriction (% 60 mM KCl): porcine coronary artery strips, normalized to 60 mM KCl response; for Constrictor activity (specific activity): relative to ET-1 = 100, porcine coronary artery. The protocol:
(§1) Spiral strips 2 mm×15 mm prepared from the coronary right ramus circumflexus from which the adventitial connective tissues and the endothelial cells were removed were set to 4 ml organ baths. The tension of each strip was detected by a force displacement transducer UL-10GR (Minebea), and recorded by a polygraph (NEC Sanei). The organ baths were maintained at 37° C., and filled with a Krebs-Henseleit solution (composition: 118 mM NaCl, 4.7 mM KCl, 2.5 mM CaCl2, 1.2 mM KH2 PO4, 25.0 mM NaHCO3, 1.2 mM MgSO4, 10.0 mM glucose) gassed with 95% O2 and 5% CO2.
(§2) A tension of 1.25 to 1.5 g was applied to each of the strips, followed by equilibration for 1.5 hours. 60 mM KCl was repeatedly applied thereto at intervals of 30 minutes until the constriction response became constant. After additional equilibration for 1.5 hours, a sample for assay was given thereto. The constriction of the strips was normalized by the constriction response of the individual strips to 60 mM KCl and statistically processed.
(2) As to the antagonistic property of the peptides of the present invention to endothelin, the affinity for an endothelin receptor and the constrictor activity on porcine coronary smooth muscles (according to the method described in (1) described above) were assayed. The affinity for the receptor was assayed by the following method.

The test system of test [2] is endothelin receptor. In words: Assay of affinity for receptor (inhibition of 125I-ET-1 binding to porcine myocardial membrane fraction). Conditions: relative to ET-1 = 100. As to the method:
Assay of Affinity for Receptor
A membrane fraction prepared from the porcine heart was diluted to 0.15 mg/ml by using a buffer solution for assay, and 100 μl of the resulting suspension of the membrane fraction was poured into each assay tube to use for assay. To this suspension of the membrane fraction was added 2 μl of 5 nM ^125 I labeled endothelin-1 solution. Further, 3 μl of a test peptide solution was added thereto, followed by incubation at a temperature of 25° C. for 1 hour. Then, the resulting suspension was diluted with 900 μl of the buffer solution for assay cooled with ice, and thereafter separated into a supernatant and a precipitate by centrifugation at 12,000×g for 10 minutes. Cell membranes and an endothelin receptor embedded therein were contained in the precipitate, and radioactive iodine-labeled endothelin combined with the receptor was also recovered in the precipitate. Accordingly, the amount of radioactive iodine-labeled endothelin combined with the endothelin receptor was determined by measuring the amount of radioactive iodine contained in the precipitate with a gamma-ray counter.

Test [3] deals with porcine coronary smooth muscles. The protocol: (1) Assay of Constrictor Suppressing Activity on Porcine Coronary Smooth Muscles
as §1, §2
pA2 is a negative logarithm value of a molar concentration of a competitive antagonist necessary for shifting in parallel a dose response curve for an active drug (for example, ET-1) alone to the high dose side by a factor of 2.

For the compound `CC[C@H](C)[C@H](NC(=O)[C@H](CC(C)C)NC(=O)[C@@H](NC(=O)[C@H](CC(C)C)NC(=O)[C@H](Cc1c[nH]cn1)NC(=O)[C@@H]1CSSCCC(=O)N[C@@H](CO)C(=O)N[C@H]2CSSC[C@H](NC(=O)[C@H](CCC(=O)O)NC(=O)[C@H](CCCCN)NC(=O)[C@H](CC(=O)O)NC(=O)[C@H](CCSC)NC(=O)[C@H](CC(C)C)NC(=O)[C@H](CO)NC(=O)[C@H](CO)NC2=O)C(=O)N[C@@H](C(C)C)C(=O)N[C@@H](Cc2ccc(O)cc2)C(=O)N[C@@H](Cc2ccccc2)C(=O)N1)[C@@H](C)O)C(=O)N[C@@H](Cc1c[nH]c2ccccc12)C(=O)O` [Example 11, [Mpr^1, Thr^18, Leu^19]-ET-1] ([Mpa]SCSSLMDKECVYFCHLTLIW-OH; disulfide 1-15, 3-11), in test [1], the “Maximum constriction (% 60 mM KCl)” value stood at 1 % 60 mM KCl and the “Constrictor activity (specific activity)” value is on record as under 0.1. In addition, the “Receptor binding activity (specific activity)” value (from here on “Receptor binding activity”) in test [2] came to 16. In test [3], this compound yielded a Relative potency of 6 and a pA2 of 6.5.
With `CC[C@H](C)[C@H](NC(=O)[C@H](Cc1ccccc1)NC(=O)[C@@H](NC(=O)[C@H](CC(C)C)NC(=O)[C@H](Cc1c[nH]cn1)NC(=O)[C@@H]1CSSC[C@H](N)C(=O)N[C@@H](CO)C(=O)N[C@H]2CSSC[C@H](NC(=O)[C@H](CCC(=O)O)NC(=O)[C@H](CCCCN)NC(=O)[C@H](CC(=O)O)NC(=O)[C@H](CCSC)NC(=O)[C@H](CC(C)C)NC(=O)[C@H](CO)NC(=O)[C@H](CO)NC2=O)C(=O)N[C@@H](C(C)C)C(=O)N[C@@H](Cc2ccc(O)cc2)C(=O)N[C@@H](Cc2ccccc2)C(=O)N1)[C@@H](C)O)C(=O)N[C@@H](Cc1c[nH]c2ccccc12)C(=O)O` [Example 3, [Thr^18, Phe^19]-ET-1] (H-CSCSSLMDKECVYFCHLTFIW-OH; disulfide 1-15, 3-11), in test [1], the “Maximum constriction (% 60 mM KCl)” value worked out at 4 % 60 mM KCl and the “Constrictor activity (specific activity)” value is under 0.1. In addition, the “Receptor binding activity” value in test [2] turned out to be 9.0. For the same compound, in test [3], the Relative potency is given as 32 and the pA2 worked out at 7.2.
`CC[C@H](C)[C@H](NC(=O)[C@H](CC(C)(C)C)NC(=O)[C@@H](NC(=O)[C@H](CC(C)C)NC(=O)[C@H](Cc1c[nH]cn1)NC(=O)[C@@H]1CSSC[C@H](N)C(=O)N[C@@H](CO)C(=O)N[C@H]2CSSC[C@H](NC(=O)[C@H](CCC(=O)O)NC(=O)[C@H](CCCCN)NC(=O)[C@H](CC(=O)O)NC(=O)[C@H](CCSC)NC(=O)[C@H](CC(C)C)NC(=O)[C@H](CO)NC(=O)[C@H](CO)NC2=O)C(=O)N[C@@H](C(C)C)C(=O)N[C@@H](Cc2ccc(O)cc2)C(=O)N[C@@H](Cc2ccccc2)C(=O)N1)[C@@H](C)O)C(=O)N[C@@H](Cc1c[nH]c2ccccc12)C(=O)O` [Example 4, [Thr^18, γLeu^19]-ET-1] (H-CSCSSLMDKECVYFCHLT[tBuAla]IW-OH; disulfide 1-15, 3-11): in test [1], the “Maximum constriction (% 60 mM KCl)” value turned out to be 0 % 60 mM KCl and the “Constrictor activity (specific activity)” value was under 0.1. In test [2], the “Receptor binding activity” value is 23. The pA2 in test [3] (against cumulative endothelin-1, porcine coronary smooth muscles) is 7.4.
As to `CC[C@H](C)[C@H](NC(=O)[C@H](CC(C)C)NC(=O)[C@@H](NC(=O)[C@H](CC(C)C)NC(=O)[C@H](Cc1c[nH]cn1)NC(=O)[C@@H]1CSSC[C@H](N)C(=O)N[C@@H](CO)C(=O)N[C@H]2CSSC[C@H](NC(=O)[C@H](CCC(=O)O)NC(=O)[C@H](CCCCN)NC(=O)[C@H](CC(=O)O)NC(=O)[C@H](CCSC)NC(=O)[C@H](C)NC(=O)[C@H](CO)NC(=O)[C@H](CO)NC2=O)C(=O)N[C@@H](C(C)C)C(=O)N[C@@H](Cc2ccc(O)cc2)C(=O)N[C@@H](Cc2ccccc2)C(=O)N1)[C@@H](C)O)C(=O)N[C@@H](Cc1c[nH]c2ccccc12)C(=O)O` [Example 15, [Ala^6, Thr^18, Leu^19]-ET-1] (H-CSCSSAMDKECVYFCHLTLIW-OH; disulfide 1-15, 3-11), in test [1], the “Maximum constriction (% 60 mM KCl)” value was 7 % 60 mM KCl and the “Constrictor activity (specific activity)” value is reported as under 0.1. Also, the “Receptor binding activity” value in test [2] is given as 11. Further, in test [3], the Relative potency came out at 6 and the pA2 stood at 6.5.
For `CC[C@H](C)[C@H](NC(=O)[C@H](CC(C)C)NC(=O)[C@@H](NC(=O)[C@H](CC(C)C)NC(=O)[C@H](Cc1c[nH]cn1)NC(=O)[C@@H]1CSSC[C@H](N)C(=O)N[C@@H](CO)C(=O)N[C@H]2CSSC[C@H](NC(=O)[C@H](CCC(=O)O)NC(=O)[C@H](CCCCN)NC(=O)[C@H](CC(=O)O)NC(=O)[C@H](CCSC)NC(=O)[C@H](CC(C)C)NC(=O)[C@H](C)NC(=O)[C@H](CO)NC2=O)C(=O)N[C@@H](C(C)C)C(=O)N[C@@H](Cc2ccc(O)cc2)C(=O)N[C@@H](Cc2ccccc2)C(=O)N1)[C@@H](C)O)C(=O)N[C@@H](Cc1c[nH]c2ccccc12)C(=O)O` [Example 14, [Ala^5, Thr^18, Leu^19]-ET-1] (H-CSCSALMDKECVYFCHLTLIW-OH; disulfide 1-15, 3-11), in test [1], the “Maximum constriction (% 60 mM KCl)” value is given as 6 % 60 mM KCl and the “Constrictor activity (specific activity)” value is reported as under 0.1. The “Receptor binding activity” value in test [2] is given as 8.6. In test [3], this compound came in with a Relative potency of 0.6 and a pA2 of 5.5.
With `CC[C@H](C)[C@H](NC(=O)[C@H](CC(C)C)NC(=O)[C@H](CO)NC(=O)[C@H](CC(C)C)NC(=O)[C@H](Cc1c[nH]cn1)NC(=O)[C@@H]1CSSC[C@H](N)C(=O)N[C@@H](CO)C(=O)N[C@H]2CSSC[C@H](NC(=O)[C@H](CCC(=O)O)NC(=O)[C@H](CCCCN)NC(=O)[C@H](CC(=O)O)NC(=O)[C@H](CCSC)NC(=O)[C@H](CC(C)C)NC(=O)[C@H](CO)NC(=O)[C@H](CO)NC2=O)C(=O)N[C@@H](C(C)C)C(=O)N[C@@H](Cc2ccc(O)cc2)C(=O)N[C@@H](Cc2ccccc2)C(=O)N1)C(=O)N[C@@H](Cc1c[nH]c2ccccc12)C(=O)O` [Example 6, [Ser^18, Leu^19]-ET-1] (H-CSCSSLMDKECVYFCHLSLIW-OH; disulfide 1-15, 3-11), in test [1], the “Maximum constriction (% 60 mM KCl)” value is listed as 1 % 60 mM KCl and the “Constrictor activity (specific activity)” value is given as under 0.1. Also, the “Receptor binding activity” value in test [2] was found to be 15. In test [3], this compound displayed a Relative potency of 63 and a pA2 of 7.5.

The values above are taken from US5352659A, “Endothelin analogs and uses thereof” (Takeda Chemical Industries, priority 1991, dated 1994).
